# Source: patent US6914045B2, “Glycopeptide antibiotics” (Wyeth Holdings Corporation, priority 2001, dated 2005)
# Read-outs that look alike come from different tables or passages of the source.
# Legend:
# Test in all cases: in vitro antibacterial evaluation, MIC by broth dilution
# Format in all cases: cell-based
# [1] = system: Escherichia coli
# How it was run: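 Broth dilution in Muller-Hinton II medium per NCCLS standard M7-A2, with an inoculum of 5×10^5 CFU/mL and antibiotic tested over 64-0.06 μg/mL. MIC was taken as the lowest concentration inhibiting visible growth.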
# [2] = system: Streptococcus sp.
# How it was run: (§1)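 Broth dilution per NCCLS standard M7-A2 in Muller-Hinton II […], with an inoculum of 5×10^5 CFU/mL and antibiotic spanning 64-0.06 μg/mL. The MIC is the lowest concentration that inhibits growth of the organism.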
# [3] = system: Enterococcus sp.
# How it was run: as §1
# [4] = system: Staphylococcus sp.
# How it was run: as §1
# [5] = broth dilution, 18 hours at 35° C.
smiles,measurement,setting,value
"CC(c1ccccc1)C1NC(=O)CNC(=O)C(CO)NC(=O)C(C(O)C2CNC(=N)N2C2OC(CO)C(O)C(O)C2O)NC(=O)C(C(O)C2CNC(=N)N2)NC(=O)C(Cc2ccc3oc(-c4ccc(-c5ccccc5)cc4)nc3c2)NC1=O (stereo not drawn) [Example 33, Cyclo[3-[2-([1,1-biphenyl]-4-yl)-1,3-benzoxazol-5-yl]alanyl-3-(2-iminoimidazolidin-4-yl)-seryl-3-(3-hexopyranosyl-2-iminoimidazolidin-4-yl)serylserylglycyl-β-methylphenylalanyl]]",MIC Escherichia coli (ATCC 25922),[1],64 µg/mL
same,MIC Escherichia coli (GC 4559),[1],64 µg/mL
same,MIC Escherichia coli (GC 4560),[1],16 µg/mL
same,MIC Streptococcus agalactiae (GC 4564),[2],32 µg/mL
same,MIC Streptococcus pneumoniae (ATCC 6301),[2],32 µg/mL
same,MIC Streptococcus pneumoniae (GC 1894),[2],32 µg/mL
same,MIC Streptococcus pneumoniae (GC 4565),[2],64 µg/mL
same,MIC Streptococcus pyogenes (GC 4563),[2],16 µg/mL
same,MIC Enterococcus avium (GC 4558),[3],8 µg/mL
same,MIC Enterococcus faecalis (ATCC 29212),[3],32 µg/mL
same,MIC Enterococcus faecalis (GC 2242),[3],16 µg/mL
same,MIC Enterococcus faecalis (GC 2691),[3],16 µg/mL
same,MIC Enterococcus faecalis (GC 3059),[3],32 µg/mL
same,MIC Enterococcus faecalis (GC 4552),[3],16 µg/mL
same,MIC Enterococcus faecalis (GC 4553),[3],16 µg/mL
same,MIC Enterococcus faecalis (GC 4554),[3],16 µg/mL
same,MIC Enterococcus faecalis (GC 6189),[3],16 µg/mL
same,MIC Enterococcus faecium (GC 2243),[3],8 µg/mL
same,MIC Enterococcus faecium (GC 4556),[3],64 µg/mL
same,MIC Enterococcus faecium (GC 4557),[3],4 µg/mL
same,MIC Coagulase Negative Staphylococcus (GC 4547),[4],4 µg/mL
same,MIC Coagulase Negative Staphylococcus (GC 4548),[4],4 µg/mL
same,MIC Coagulase Negative Staphylococcus (GC 4549),[4],1 µg/mL
same,MIC Coagulase Negative Staphylococcus (GC 4551),[4],8 µg/mL
same,MIC Coagulase Negative Staphylococcus (GC 6257),[4],4 µg/mL
same,MIC Staphylococcus aureus (ATCC 29213),[4],8 µg/mL
same,MIC Staphylococcus aureus (GC 1131),[4],4 µg/mL
same,MIC Staphylococcus aureus (GC 3051),[4],16 µg/mL
same,MIC Staphylococcus aureus (GC 3053),[4],8 µg/mL
same,MIC Staphylococcus aureus (GC 4541),[4],8 µg/mL
same,MIC Staphylococcus aureus (GC 4542),[4],8 µg/mL
same,MIC Staphylococcus aureus (GC 4544),[4],4 µg/mL
same,MIC Staphylococcus aureus (GC 4545),[4],8 µg/mL
same,MIC Staphylococcus aureus-SMITH (GC 4543),[4],4 µg/mL
same,MIC Staphylococcus haemolyticus (GC 4546),[4],4 µg/mL
"CC(c1ccccc1)C1NC(=O)CNC(=O)C(CO)NC(=O)C(CC2CN(Cc3ccccc3)C(=NCc3ccccc3)N2C2OC(CO)C(O)C(O)C2O)NC(=O)C(CC2CN(Cc3ccccc3)C(=NCc3ccccc3)N2Cc2ccccc2)NC(=O)C(Cc2ccc(OC3OC(CO)C(OC4OC(CO)C(O)C(O)C4O)C(O)C3O)cc2)NC1=O (stereo not drawn) [Example 73, Cyclo[3-[1,3-benzyl-2-(benzylimino)imidazolidin-4-yl]alanyl-3-[1-benzyl-2-(benzylimino)-3-hexopyranosylimidazolidin-4-yl]alanylserylglycyl-β-methylphenylalanyl-O-(4-O-hexopyranosylhexopyranosyl)tyrosyl]]",MIC Escherichia coli (ATCC 25922),[1]; 18 hours at 35° C.,>128 µg/mL
same,MIC Escherichia coli (GC 4559),[1]; 18 hours at 35° C.,>128 µg/mL
same,MIC Escherichia coli (GC 4560),[1]; 18 hours at 35° C.,16 µg/mL
same,MIC Streptococcus agalactiae (GC 4564),[2]; [5],>128 µg/mL
same,MIC Streptococcus pneumoniae (ATCC 6301),[2]; [5],128 µg/mL
same,MIC Streptococcus pneumoniae (GC 1894),[2]; [5],64 µg/mL
same,MIC Streptococcus pneumoniae (GC 4565),[2]; [5],128 µg/mL
same,MIC Streptococcus pyogenes (GC 4563),[2]; [5],>128 µg/mL
same,MIC Streptococcus pneumoniae (ATCC 6301),"[2]; broth dilution, 18 hours at 35° C., strain ATCC 6301",128 µg/mL
same,MIC Streptococcus pneumoniae (GC 1894),"[2]; broth dilution, 18 hours at 35° C., strain GC 1894",64 µg/mL
same,MIC Streptococcus pyogenes (GC 4563),"[2]; broth dilution, 18 hours at 35° C., strain GC 4563",>128 µg/mL
same,MIC Streptococcus agalactiae (GC 4564),"[2]; broth dilution, 18 hours at 35° C., strain GC 4564",>128 µg/mL
same,MIC Streptococcus pneumoniae (GC 4565),"[2]; broth dilution, 18 hours at 35° C., strain GC 4565",128 µg/mL
same,MIC Enterococcus avium (GC 4558),"[3]; Enterococcus avium (GC 4558), broth dilution, 18 hours at 35° C.",128 µg/mL
same,MIC Enterococcus faecalis (ATCC 29212),"[3]; Enterococcus faecalis (ATCC 29212), broth dilution, 18 hours at 35° C.",>128 µg/mL
same,MIC Enterococcus faecalis (GC 4552),"[3]; Enterococcus faecalis (GC 4552), broth dilution, 18 hours at 35° C.",>128 µg/mL
same,MIC Enterococcus faecalis (GC 4553),"[3]; Enterococcus faecalis (GC 4553), broth dilution, 18 hours at 35° C.",>128 µg/mL
same,MIC Enterococcus faecalis (GC 4554),"[3]; Enterococcus faecalis (GC 4554), broth dilution, 18 hours at 35° C.",>128 µg/mL
same,MIC Enterococcus faecalis (GC 6189),"[3]; Enterococcus faecalis (GC 6189), broth dilution, 18 hours at 35° C.",>128 µg/mL
same,MIC Enterococcus faecium (GC 2243),"[3]; Enterococcus faecium (GC 2243), broth dilution, 18 hours at 35° C.",>128 µg/mL
same,MIC Enterococcus faecium (GC 4556),"[3]; Enterococcus faecium (GC 4556), broth dilution, 18 hours at 35° C.",>128 µg/mL
same,MIC Enterococcus faecium (GC 4557),"[3]; Enterococcus faecium (GC 4557), broth dilution, 18 hours at 35° C.",128 µg/mL
same,MIC Enterococcus avium (GC 4558),[3]; [5],128 µg/mL
same,MIC Enterococcus faecalis (ATCC 29212),[3]; [5],>128 µg/mL
same,MIC Enterococcus faecalis (GC 2242),[3]; [5],>128 µg/mL
same,MIC Enterococcus faecalis (GC 2691),[3]; [5],>128 µg/mL
same,MIC Enterococcus faecalis (GC 3059),[3]; [5],>128 µg/mL
same,MIC Enterococcus faecalis (GC 4552),[3]; [5],>128 µg/mL
same,MIC Enterococcus faecalis (GC 4553),[3]; [5],>128 µg/mL
same,MIC Enterococcus faecalis (GC 4554),[3]; [5],>128 µg/mL
same,MIC Enterococcus faecalis (GC 6189),[3]; [5],>128 µg/mL
same,MIC Enterococcus faecium (GC 2243),[3]; [5],>128 µg/mL
same,MIC Enterococcus faecium (GC 4556),[3]; [5],>128 µg/mL
same,MIC Enterococcus faecium (GC 4557),[3]; [5],128 µg/mL
same,MIC Enterococcus faecalis (GC 2242),"[3]; broth dilution, 18 hours at 35° C., strain GC 2242",>128 µg/mL
same,MIC Enterococcus faecalis (GC 2691),"[3]; broth dilution, 18 hours at 35° C., strain GC 2691",>128 µg/mL
same,MIC Enterococcus faecalis (GC 3059),"[3]; broth dilution, 18 hours at 35° C., strain GC 3059",>128 µg/mL
same,MIC Staphylococcus aureus (ATCC 29213),"[4]; strain ATCC 29213, broth dilution, 18 hours at 35° C.",>128 µg/mL
same,MIC Staphylococcus aureus (GC 1131),"[4]; strain GC 1131, broth dilution, 18 hours at 35° C.",>128 µg/mL
same,MIC Staphylococcus aureus (GC 3051),"[4]; strain GC 3051, broth dilution, 18 hours at 35° C.",>128 µg/mL
same,MIC Staphylococcus aureus (GC 3053),"[4]; strain GC 3053, broth dilution, 18 hours at 35° C.",>128 µg/mL
same,MIC Staphylococcus aureus (GC 4541),"[4]; strain GC 4541, broth dilution, 18 hours at 35° C.",>128 µg/mL
same,MIC Staphylococcus aureus (GC 4542),"[4]; strain GC 4542, broth dilution, 18 hours at 35° C.",>128 µg/mL
same,MIC Staphylococcus aureus-SMITH (GC 4543),"[4]; strain GC 4543, broth dilution, 18 hours at 35° C.",>128 µg/mL
same,MIC Staphylococcus aureus (GC 4544),"[4]; strain GC 4544, broth dilution, 18 hours at 35° C.",>128 µg/mL
same,MIC Staphylococcus aureus (GC 4545),"[4]; strain GC 4545, broth dilution, 18 hours at 35° C.",>128 µg/mL
same,MIC Staphylococcus haemolyticus (GC 4546),"[4]; strain GC 4546, broth dilution, 18 hours at 35° C.",>128 µg/mL
same,MIC Coagulase Negative Staphylococcus (GC 4547),"[4]; strain GC 4547, broth dilution, 18 hours at 35° C.",>128 µg/mL
same,MIC Coagulase Negative Staphylococcus (GC 4548),"[4]; strain GC 4548, broth dilution, 18 hours at 35° C.",>128 µg/mL
same,MIC Coagulase Negative Staphylococcus (GC 4549),"[4]; strain GC 4549, broth dilution, 18 hours at 35° C.",>128 µg/mL
same,MIC Coagulase Negative Staphylococcus (GC 4551),"[4]; strain GC 4551, broth dilution, 18 hours at 35° C.",>128 µg/mL
same,MIC Coagulase Negative Staphylococcus (GC 6257),"[4]; strain GC 6257, broth dilution, 18 hours at 35° C.",>128 µg/mL
